Reference: patent US11198695B2, “Fused ring derivative having MGAT-2 inhibitory activity” (Shionogi & Co., Ltd., priority 2017, dated 2021)

biological target: recombinant human MGAT2 (Homo sapiens (Human), UniProt Q3SYC2); assay: Measurement of human MGAT2 inhibitory activity; type: biochemical; details: read-out: IC50 (concentration exhibiting 50% enzyme inhibition), Table 53
Outline: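 Membrane fraction of Sf9 cells expressing N-terminally Flag-tagged full-length human MGAT2, incubated 1 h at room temperature in 100 mmol/L phosphate pH 7.4 with 2 mmol/L DTT. The substrate solution held 30 μmol/L 2-oleoylglycerol and 10 μmol/L oleoyl-CoA. Diolein product was quantified by RapidFire ESI Q-TOF MS against diolein-d5 internal standard; % inhibition was set relative to with/without-enzyme controls.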

recombinant human MGAT2, sequence (Q3SYC2 whole entry): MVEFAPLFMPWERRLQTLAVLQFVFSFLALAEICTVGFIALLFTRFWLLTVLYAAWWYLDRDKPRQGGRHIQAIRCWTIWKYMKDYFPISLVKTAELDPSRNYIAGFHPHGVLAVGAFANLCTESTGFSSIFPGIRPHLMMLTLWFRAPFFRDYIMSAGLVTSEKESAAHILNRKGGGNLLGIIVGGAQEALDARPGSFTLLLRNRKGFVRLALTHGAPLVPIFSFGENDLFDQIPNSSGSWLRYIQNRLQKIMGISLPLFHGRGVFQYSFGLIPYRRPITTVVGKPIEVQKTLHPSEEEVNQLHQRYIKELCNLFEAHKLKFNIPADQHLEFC

Q: Which IC50 does the source give for `CS(=O)(=O)CC(=O)Nc1c2c(nn1CCC1CC1)C[C@@]1(CCc3cc(CCC(F)(F)F)ccc31)NC2=O` [II-66] here?
A: 2.5 nM

Q: Which IC50 does the source give for `CS(=O)(=O)CC(=O)Nc1c2c(nn1-c1ccc(F)c(F)c1)C[C@]1(CCOc3cc(OCC(F)(F)F)ccc31)NC2=O` [II-67] here?
A: 2.64 nM

Q: For `COc1nccc(NCc2c3c(nn2CCC2CC2)C[C@@]2(CCc4cc(OCC(F)(F)F)ccc42)NC3=O)n1` [II-68], which IC50 is on record?
A: 420 nM

Q: With `O=C1N[C@]2(CCc3cc(OCC(F)(F)F)ccc32)Cc2nn(CCC3CC3)c(CNc3ccnc(O)n3)c21` [II-69] as the molecule, how does the IC50 read?
A: 43.9 nM

Q: For `CNS(=O)(=O)CC(=O)Nc1c2c(nn1-c1ccc(C#N)cn1)C[C@@]1(CCc3cc(OCC(F)(F)F)ccc31)NC2=O` [II-70], which IC50 is on record?
A: 3.94 nM

Q: Which IC50 does the source give for `Cc1nocc1-c1ccc2c(c1)CC[C@@]21Cc2nn(CCC3CC3)c(NC(=O)CS(C)(=O)=O)c2C(=O)N1` [II-71] here?
A: 12.6 nM

Q: How did the IC50 turn out when `N#Cc1ccc(-n2nc3c(c2NC(=O)C2CS(=O)(=O)C2)C(=O)N[C@@]2(CCc4cc(OCC(F)(F)F)ccc42)C3)nc1` [II-72] was run?
A: 3.69 nM

Q: With `CS(=O)(=O)CC(=O)Nc1c2c(nn1-c1ccc(C#N)cn1)CC1(CN(c3c(F)cc(C(F)(F)F)cc3F)C1)NC2=O` [II-74] as the molecule, how does the IC50 read?
A: 2.3 nM

Q: Which IC50 does the source give for `CS(=O)(=O)CC(=O)Nc1c2c(nn1-c1ccc(C#N)cn1)C[C@]1(CCc3cc(Cl)ccc31)NC2=O` [II-75] here?
A: 3.69 nM

Q: With `CS(=O)(=O)CC(=O)Nc1c2c(nn1CCC1CC1)C[C@@]1(CCc3cc(C4CC4)ccc31)NC2=O` [II-76] as the molecule, how does the IC50 read?
A: 6 nM

Q: For `CS(=O)(=O)CC(=O)Nc1c2c(nn1CCC1CC1)C[C@@]1(CCc3cc(OCC(F)F)ccc31)NC2=O` [II-77], which IC50 is on record?
A: 5.5 nM

Q: With `CS(=O)(=O)CC(=O)Nc1c2c(nn1-c1ccc(C#N)cn1)CC1(CN(c3nc(C(F)(F)F)cs3)C1)NC2=O` [II-78] as the molecule, how does the IC50 read?
A: 45 nM

Q: For `CS(=O)(=O)CC(=O)Nc1c2c(nn1-c1ccc(C#N)cn1)CC1(CN(c3nc(C(F)(F)F)co3)C1)NC2=O` [II-79], which IC50 is on record?
A: 110 nM

Q: `CC(C)c1ccc(N2CC3(Cc4nn(-c5ccc(C#N)cn5)c(NC(=O)CS(C)(=O)=O)c4C(=O)N3)C2)cc1` [II-80] was tested. Which IC50 did it give?
A: 9.1 nM

Q: `O=C1N[C@@]2(CCc3cc(OCC(F)(F)F)ccc32)Cc2nn(CCC3CC3)c(NC(=O)[C@H]3CCCS3(=O)=O)c21` [II-81] was tested. Which IC50 did it give?
A: 46.6 nM

Q: With `CS(=O)(=O)CC(=O)Nc1c2c(nn1CCC1CC1)C[C@@]1(CCc3cc(OCC4CC(F)(F)C4)ccc31)NC2=O` [II-82] as the molecule, how does the IC50 read?
A: 2.49 nM

Q: How did the IC50 turn out when `CS(=O)(=O)CC(=O)Nc1c2c(nn1CCC1CC1)C[C@@]1(CCc3cc(-c4cnn(C(F)(F)F)c4)ccc31)NC2=O` [II-83] was run?
A: 1.99 nM

Q: `CS(=O)(=O)CC(=O)Nc1c2c(nn1CCCC(F)(F)F)C[C@@]1(NC2=O)c2ccc(OCC(F)(F)F)cc2CC1(F)F` [II-85] was tested. Which IC50 did it give?
A: 45.5 nM

Q: How did the IC50 turn out when `Cc1ccc(-n2nc3c(c2NC(=O)CS(C)(=O)=O)C(=O)N[C@@]2(C3)c3ccc(OCC(F)(F)F)cc3CC2(F)F)nc1` [II-86] was run?
A: 3.37 nM

Q: With `CS(=O)(=O)CC(=O)Nc1c2c(nn1-c1ccc(C#N)cn1)C[C@]1(NC2=O)c2ccc(OCC(F)(F)F)cc2CC1(F)F` [II-87] as the molecule, how does the IC50 read?
A: 2.63 nM

Q: Which IC50 does the source give for `CS(=O)(=O)CC(=O)Nc1c2c(nn1-c1ccc(F)c(F)c1)C[C@]1(NC2=O)c2ccc(OCC(F)(F)F)cc2CC1(F)F` [II-88] here?
A: 3.67 nM

Q: With `CS(=O)(=O)CC(=O)Nc1c2c(nn1-c1ccc(C#N)cn1)CC1(CN(c3cccc(C(F)(F)F)c3)C1)NC2=O` [II-89] as the molecule, how does the IC50 read?
A: 10.8 nM

Q: For `CS(=O)(=O)CC(=O)Nc1c2c(nn1-c1ccc(C#N)cn1)CC1(CN(c3ccc(C(F)(F)F)nc3)C1)NC2=O` [II-90], which IC50 is on record?
A: 40 nM

Q: With `N#Cc1ccc(-n2nc3c(c2NC(=O)C2CCS(=O)(=O)C2)C(=O)N[C@@]2(CCc4cc(OCC(F)(F)F)ccc42)C3)nc1` (stereo partly drawn) [II-91] as the molecule, how does the IC50 read?
A: 2.79 nM

Q: Which IC50 does the source give for `CS(=O)(=O)CC(=O)Nc1c2c(nn1CCC1CC1)C[C@@]1(NC2=O)c2ccc(OCC(F)(F)F)cc2CC1(F)F` [II-92] here?
A: 44.3 nM

Q: With `C[C@@]1(c2ccc(OCC(F)(F)F)cc2F)Cc2nn(-c3ccc(C#N)cn3)c(NC(=O)CS(C)(=O)=O)c2C(=O)N1` [II-95] as the molecule, how does the IC50 read?
A: 4.29 nM

Q: Which IC50 does the source give for `C[C@@]1(c2ccc(OCC(F)(F)F)cc2F)Cc2nn(-c3ccc(F)c(F)c3)c(NC(=O)CS(C)(=O)=O)c2C(=O)N1` [II-96] here?
A: 8.88 nM

Q: `CS(=O)(=O)CC(=O)Nc1c2c(nn1CCCOC(F)(F)F)C[C@@]1(NC2=O)c2ccc(OCC(F)(F)F)cc2CC1(F)F` [II-97] was tested. Which IC50 did it give?
A: 3.97 nM

Q: How did the IC50 turn out when `CS(=O)(=O)CC(=O)Nc1c2c(nn1CCC1CC1)C[C@@]1(CCc3cc(OC4CC4)ccc31)NC2=O` [II-98] was run?
A: 7.1 nM

Q: `CS(=O)(=O)CC(=O)Nc1c2c(nn1CCC1CC1)C[C@@]1(CCc3cc(OCCOCC(F)F)ccc31)NC2=O` [II-99] was tested. Which IC50 did it give?
A: 9.59 nM

Q: Which IC50 does the source give for `CS(=O)(=O)CC(=O)Nc1c2c(nn1CCC1CC1)C[C@@]1(CCc3cc(OCCOCC(F)(F)F)ccc31)NC2=O` [II-100] here?
A: 4.76 nM

Q: With `CS(=O)(=O)CC(=O)Nc1c2c(nn1CCC1CC1)C[C@@]1(CCc3cc(OCCCC(F)(F)F)ccc31)NC2=O` [II-101] as the molecule, how does the IC50 read?
A: 1.25 nM

Q: With `CS(=O)(=O)CC(=O)Nc1c2c(nn1-c1ccc(C#N)cn1)CC1(Cc3cc(F)c(F)cc3C1)NC2=O` [II-102] as the molecule, how does the IC50 read?
A: 56.3 nM

Q: With `CS(=O)(=O)CC(=O)Nc1c2c(nn1-c1ccc(C#N)c(F)c1)C[C@]1(CCc3cc(OCC(F)(F)F)ccc31)NC2=O` [II-104] as the molecule, how does the IC50 read?
A: 11.5 nM

Q: Which IC50 does the source give for `CS(=O)(=O)CC(=O)Nc1c2c(nn1-c1ccc(C3CC3)nn1)C[C@]1(CCc3cc(OCC(F)(F)F)ccc31)NC2=O` [II-105] here?
A: 2.68 nM

Q: For `CS(=O)(=O)CC(=O)Nc1c2c(nn1-c1ccc(C(F)(F)F)nn1)C[C@]1(CCc3cc(OCC(F)(F)F)ccc31)NC2=O` [II-106], which IC50 is on record?
A: 1.72 nM

Q: Which IC50 does the source give for `CS(=O)(=O)CC(=O)Nc1c2c(nn1-c1ccon1)C[C@]1(CCc3cc(OCC(F)(F)F)ccc31)NC2=O` [II-107] here?
A: 40.7 nM

Q: For `N#Cc1ccc(-n2nc3c(c2C(=O)NCC2(O)CCC2)C(=O)N[C@@]2(CCc4cc(OCC(F)(F)F)ccc42)C3)nc1` [II-108], which IC50 is on record?
A: 2.51 nM

Q: For `N#Cc1ccc(-n2nc3c(c2C(=O)NCC2(CO)CCCC2)C(=O)N[C@@]2(CCc4cc(OCC(F)(F)F)ccc42)C3)nc1` [II-109], which IC50 is on record?
A: 23.1 nM

Q: How did the IC50 turn out when `N#Cc1ccc(-n2nc3c(c2C(=O)NC2(C#N)CC2)C(=O)N[C@@]2(CCc4cc(OCC(F)(F)F)ccc42)C3)nc1` [II-110] was run?
A: 30.4 nM

Q: With `CS(=O)(=O)CCNC(=O)c1c2c(nn1-c1ccc(C#N)cn1)C[C@]1(CCc3cc(OCC(F)(F)F)ccc31)NC2=O` [II-111] as the molecule, how does the IC50 read?
A: 50.8 nM

Q: How did the IC50 turn out when `N#Cc1ccc(-n2nc3c(c2C(=O)NCC2(O)CC2)C(=O)N[C@@]2(CCc4cc(OCC(F)(F)F)ccc42)C3)nc1` [II-112] was run?
A: 5.28 nM

Q: `N#Cc1ccc(-n2nc3c(c2C(=O)NC2(C#N)CCCCC2)C(=O)N[C@@]2(CCc4cc(OCC(F)(F)F)ccc42)C3)nc1` [II-113] was tested. Which IC50 did it give?
A: 8.23 nM

Q: Which IC50 does the source give for `N#Cc1ccc(-n2nc3c(c2C(=O)NCCOC(F)(F)F)C(=O)N[C@@]2(CCc4cc(OCC(F)(F)F)ccc42)C3)nc1` [II-114] here?
A: 60.3 nM

Q: Which IC50 does the source give for `CC(C)(CNC(=O)c1c2c(nn1-c1ccc(C#N)cn1)C[C@]1(CCc3cc(OCC(F)(F)F)ccc31)NC2=O)C(N)=O` [II-115] here?
A: 204 nM

Q: For `N#Cc1ccc(-n2nc3c(c2C(=O)NCC2(CO)CCC2)C(=O)N[C@@]2(CCc4cc(OCC(F)(F)F)ccc42)C3)nc1` [II-116], which IC50 is on record?
A: 3.96 nM

Q: For `N#Cc1ccc(-n2nc3c(c2C(=O)N[C@H]2C[C@H](O)C2)C(=O)N[C@@]2(CCc4cc(OCC(F)(F)F)ccc42)C3)nc1` [II-117], which IC50 is on record?
A: 37.9 nM

Q: How did the IC50 turn out when `N#Cc1ccc(-n2nc3c(c2C(=O)NCC2(O)COC2)C(=O)N[C@@]2(CCc4cc(OCC(F)(F)F)ccc42)C3)nc1` [II-118] was run?
A: 6.26 nM
